The conditions of data set [1]: according to Japanese Patent No. 4080998; cited from earlier work.
Data set [2] is described as follows: Surface tension-reducing ability, background comparison with PFOA / PFOS. Format: physicochemical. To be noted: study conducted by the inventors.
A short description of data set [3]: Surface activity: surface tension of aqueous solution, Wilhelmy method. The class given is physicochemical. The protocol: (§1) Each of the compounds was mixed with water so that an aqueous solution having a concentration of 1,000 ppm by mass was prepared. By measuring the surface tension of the prepared aqueous solution, the surface activity was evaluated. The surface tension was measured by the Wilhelmy method using an automatic surface tensiometer CBVP-Z manufactured by Kyowa Interface Science Co., LTD. […] Therefore, in Comparative Example 2, the surface tension was measured in the saturated state.

Data set [4] is described as follows: Stability in water: decomposition rate from 19F-NMR before and after storage. The class given is physicochemical. The note with it: stored 20 days at 20° C. to 25° C. How it is done:
(§2) Each of the compounds was mixed with water so that an aqueous solution having a concentration of 10% by mass was prepared. The prepared aqueous solution was stored for 20 days in a room adjusted to 20° C. to 25° C. By calculating a decomposition rate of the compound from ^19F—NMR spectra of the compound in the aqueous solution that were obtained before and after the storage, the stability in water was evaluated. The decomposition rate was calculated by the following formula. A compound having a decomposition rate of 3% or less was described as “No decomposition”. […] Therefore, in Comparative Example 2, the stability in water was evaluated in the saturated state. Decomposition rate (%)={1-(integration value of ^19F—NMR spectrum after storage/integration value of ^19F—NMR spectrum before storage)}×100

Data set [5] in a line: Dissolution in water when preparing the aqueous test solutions. The class given is physicochemical. The protocol: as §1, §2

On to `N.O=S(=O)(NS(=O)(=O)C(F)(F)C(F)(F)C(F)(F)C(F)(F)F)C(F)(F)C(F)(F)C(F)(F)C(F)(F)F` [ammonium bis(perfluorobutanesulfonyl)imide], for which, in data set [1], the “Ability to reduce surface tension compared to ammonium salt of PFOA” value is reported as “more able to reduce surface tension than the ammonium salt of perfluorooctanoic acid (PFOA)”. For the same compound, the “Surface tension-reducing ability compared to PFOS” value in data set [2] was “lower than that of PFOS”.
Consider `O=S(=O)([N-]S(=O)(=O)C(F)(F)C(F)(F)C(F)(F)C(F)(F)F)C(F)(F)C(F)(F)C(F)(F)C(F)(F)F.[K+]` [Comparative Example 1, bis(perfluorobutanesulfonyl)imide potassium salt], for which, in data set [3] (aqueous solution, concentration 1,000 ppm by mass), the Surface tension stood at 43 mN/m. Besides, in data set [4] (10% by mass aqueous solution), the Stability in water entry is given as “No decomposition (A compound having a decomposition rate of 3% or less was described as “No decomposition”)”.
On to `O=S(=O)([O-])C(F)(F)C(F)(F)C(F)(F)C(F)(F)C(F)(F)C(F)(F)C(F)(F)C(F)(F)F.[K+]` [Comparative Example 2, potassium salt of perfluorooctanesulfonic acid (PFOS)], for which the Surface tension in data set [3] (saturated aqueous solution (not completely dissolved)) is given as 41 (saturated) mN/m. Besides, the Dissolution in water result in data set [5] (mixed with water for 10% by mass) and in data set [5] (mixed with water for 1,000 ppm by mass) was “formed a saturated aqueous solution without being completely dissolved in water” in each case. Moreover, the Stability in water result in data set [4] (saturated aqueous solution) is recorded as “No decomposition (A compound having a decomposition rate of 3% or less was described as “No decomposition”)”.

The values above are taken from patent US11414381B2, “Fluorinated imide salt compound and surfactant” (Mitsubishi Materials Electronic Chemicals Co., Ltd., priority 2018, dated 2022).
